# From patent US20260193668A1, “NOVEL PEPTIDES AND USE THEREOF FOR MODULATING PROTEIN ACCUMULATION” (UNIVERSITE TOULOUSE III - PAUL SABATIER, priority 2022, published 2026)
# Legend:
# AP2 mRNA = test: Quantification by qRT PCR of AP2 expression in treated plants; assay type: in vivo, Arabidopsis thaliana; settings: 100 μM peptide
# Protocol: (§1) Quantification by qRT PCR of the expression of different genes in response to 100 μM of different peptides
# (§2) (a) Treatment of plants with the peptide AtCOI1alt1; (b) Treatment of plants with the peptide AtAP2alt1; (c) Treatment of plants with the peptide AtEIN2alt1 (d) Treatment of plants with the peptide AtCPK3alt1.
# (§3) Quantification of mRNAs was performed by qRT-PCR using appropriate primer pairs selected from the sequences: SEQ ID NOs: 367 to 374. Expression levels for the controls were set at 100. The primers used for the A. euteiches assays are described in Camborde et al (New Phytol. 233:2232-2248. 2022).
# AP2 = test: Quantification of AP2 by Western blot in A. thaliana leaves; assay type: in vivo, Arabidopsis thaliana; settings: A. thaliana leaves treated for 5 days with 100 μM peptide
# Protocol: (§4) (a) Schematic representation of a gene encoding altORFs producing altPEPs. (b) ORF ranking distribution of altPEPs detected by MS. (c) Frequency of altPEPs detected by MS by length ranges. (d) Main root length of A. thaliana seedlings treated with 100 μM peptide for 4 days. (e, f) Quantification of DCL1 expression by RT-qPCR (e) and Western blot using anti-DCL1 antibodies (f) in A. thaliana leaves treated for 5 days with 100 μM peptide. (g, h) Quantification of COI1, AP2, CPK3 (g) and EIN2 (h) by Western blot using specific antibodies in A. thaliana leaves treated for 5 days with 100 μM peptide.
# (§5) N. benthamiana plants were treated by spraying the leaves 24 h before harvesting. For Luc assays, 100 μL of MS/2 liquid medium containing the peptides was added to each well. 5 μL of luciferin was added and luciferase activity was read 30 min later using a spectrophotometer. All other assays were performed by spraying or watering the plants. To quantify the protein level induced by cPEPs in Arabidopsis, rosettes were sprayed daily with 100 μM of peptide or its control for 5 days. Leaves were harvested 6 h after the last treatment for western blot analysis. […] Chlorophyll content was measured using the SPAD chlorophylometer (Konica Minolta). Leaf area was measured using ImageJ software. […]
# DCL1 = test: Western blot using anti-DCL1 antibodies in A. thaliana leaves; assay type: in vivo, Arabidopsis thaliana; settings: A. thaliana leaves treated for 5 days with 100 μM peptide
# Protocol: as §4, §5
# A. thaliana seedlings [1] = test: Main root length of A. thaliana seedlings treated with altPEP; assay type: in vivo, Arabidopsis thaliana; settings: A. thaliana seedlings treated with 100 μM peptide for 4 days
# Protocol: as §4
# To study the biological roles of altPEPs, two types of altPEPs were studied: one well conserved among Brassicaceae, and corresponding to the altORF18 of the DCL1 gene (FIG. 3c), and another, corresponding to the first altORF of the COI1 gene, but not conserved among Brassicaceae. A. thaliana seedlings were treated with the peptide AtDCL1alt18 (SEQ ID NO: 224) and root development analysed, since dcl mutants show longer main roots (Park, W., et al. Curr. Biol. 12, 1484-1495 (2002)).
# DCL1 mRNA = test: Quantification of DCL1 expression by RT-qPCR in A. thaliana leaves; assay type: in vivo, Arabidopsis thaliana; settings: A. thaliana leaves treated for 5 days with 100 μM peptide
# Protocol: as §4, §3
# N. benthamiana plants were treated by spraying the leaves 24 h before harvesting. […] 5 μL of luciferin was added and luciferase activity was read 30 min later using a spectrophotometer. […] To quantify the protein level induced by cPEPs in Arabidopsis, rosettes were sprayed daily with 100 μM of peptide or its control for 5 days. […] Chlorophyll content was measured using the SPAD chlorophylometer (Konica Minolta). Leaf area was measured using ImageJ software. […]
# EIN2 mRNA = test: Quantification by qRT PCR of EIN2 expression in treated plants; assay type: in vivo, Arabidopsis thaliana; settings: 100 μM peptide
# Protocol: as §1, §2, §3
# EIN2 = test: Quantification of EIN2 by Western blot in A. thaliana leaves; assay type: in vivo, Arabidopsis thaliana; settings: A. thaliana leaves treated for 5 days with 100 μM peptide
# Protocol: as §4, §5
# A. thaliana seedlings [2] = test: Length of primary roots of A. thaliana seedlings treated with cPEP; assay type: in vivo, Arabidopsis thaliana; settings: versus Scrambled cPEPdcl1
# Protocol: (§6) (a, b) Length of primary roots of A. thaliana seedlings treated with a Scrambled cPEPdcl1 or with a cPEPdcl1. (c) Relative chlorophyll content of A. thaliana seedlings treated with the corresponding peptide. (d) Resumption of growth of A. thaliana seedlings after heat shock at 45° C. for 45 min and treated with the corresponding peptide. (e) Relative lesion area of A. thaliana seedlings infected with B. cinerea and treated with the indicated peptide. (f) Measurement of the flowering day of A. thaliana plants treated with the indicated peptides. (g, h) Flowering day of A. thaliana plants treated with an irrelevant peptide or a mixture of cPEPs (targeting EIN2, BR11, BAK1 and WUS). (i, j) Leaf area of A. thaliana plants treated with an irrelevant peptide or a mixture of cPEPs (targeting EIN2, BR11, BAK1 and WUS).
# The work then focused on different A. thaliana proteins involved in different plant functions. […] 12:479-492, 2000), improved the viability of seedlings to heat shock (FIG. 7d). In parallel, several A. thaliana plant defence regulators were targeted, namely AGB1 (SEQ ID NO: 195), MAPKKK3 (SEQ ID NO: 187), JAR1 (SEQ ID NO: 192), MAPKKK5 (SEQ ID NO: 188), ABCG34 (SEQ ID NO: 194) and CPK3 (SEQ ID NO: 162). […] Next, several cPEPs were designed targeting different proteins involved in plant development by measuring the day of flowering. […]
# A. thaliana seedlings [3] = test: Heat shock resistance test on A. thaliana seedlings; assay type: in vivo, Arabidopsis thaliana; settings: 100 μM peptide, 45° C. for 45 min
# Protocol: as §6
# N. benthamiana plants were treated by spraying the leaves 24 h before harvesting. For Luc assays, 100 μL of MS/2 liquid medium containing the peptides was added to each well. 5 μL of luciferin was added and luciferase activity was read 30 min later using a spectrophotometer. […] To quantify the protein level induced by cPEPs in Arabidopsis, rosettes were sprayed daily with 100 μM of peptide or its control for 5 days. […] Chlorophyll content was measured using the SPAD chlorophylometer (Konica Minolta). Leaf area was measured using ImageJ software. […]
# M. truncatula roots = test: Quantification of nodules on M. truncatula roots; assay type: in vivo, Medicago truncatula; settings: versus irrelevant peptide
# Excerpt: (a) FRET-FLIM analysis of the interaction between cPEPnsp1-FAM and NSP1 (left) or NSP1ΔcPEP (right) in planta. (b) qRT-PCR quantification of NSP1 expression in M. truncatula roots treated with cPEPnsp1 or Scrambled cPEPnsp1. (c) GUS quantification of peptide-treated M. truncatula roots carrying the Pro NSP1-NSP1-GUS fusion. (d, e) Quantification of NSP1 expression in N. benthamiana leaves after infiltration of different constructs: ‘wild type’ i.e. version of NSP1 wherein the cPEP sequence has been deleted (NSP1 ΔcPEP) or version of NSP1 wherein the cPEP sequence has been replaced by an artificial sequence (NSP1 ΔcPEP-cPEPartificial), with an empty vector (control) or cPEPnsp1 or cPEPartificial. (f, g) Formation of lateral roots of M. truncatula WT seedlings, nsp1 or overexpressing NSP1, in response to cPEPnsp1 or Scrambled cPEPnsp1. (h, i) Quantification of nodules on roots of M. truncatula roots treated with an irrelevant peptide or cPEPskl. […]
# In order to verify whether cPEPs can target any protein, the activity of 12 cPEPs targeting 12 different proteins for which antibodies were available was studied and validated in three different plant species. The question was whether the increase in the quantity of proteins observed after treatment with cPEP was sufficient to modulate plant development. […]
substance,measurement,setting,value
AtAP2alt1 (MGISYLGLWETSLLRWI; AtAP2alt1),AP2 mRNA expression (qRT PCR),AP2 mRNA,without detecting any change
same,AP2 protein level (Western blot),AP2,increase
AtDCL1alt18 (MLMLNPPRHHGILQRPTCLSLLLTIRLWNP; AtDCL1alt18),DCL1 protein accumulation (Western blot),DCL1,increased
same,root development (main root length),A. thaliana seedlings [1],decrease in root development
same,DCL1 mRNA expression (qRT-PCR),DCL1 mRNA,no effect
AtEIN2alt1 (MGCKYRRRCSFRV; AtEIN2alt1),EIN2 mRNA expression (qRT PCR),EIN2 mRNA,without detecting any change
same,EIN2 protein level (Western blot),EIN2,increase
cPEPdcl1 (SRAFGSVFFSGD; cPEPdcl1),primary root growth,A. thaliana seedlings [2],reduction
"cPEPhsp101 (MQDMLNSLLCI; cPEPhsp101) [SEQ ID NO: 404, cPEP targeting the A. thaliana HSP101 protein]",viability of seedlings to heat shock,A. thaliana seedlings [3],improved
cPEPskl (TETVGHEDAS; cPEPskl),amount of nodules,M. truncatula roots,decrease
